Measured values: PMC8482776 (ACS Omega, 2021)
Converted amounts (≈) assume the structure as drawn.

Columns and labels:
[1] = system: Asp. nidulans (PTCC 5014); assay: Microdilution MIC90, strain F; type: cell-based, Aspergillus nidulans; details: filamentous fungi, 48 h at 37 °C, triplicate
M. canis (PTCC 5069) = assay: Microdilution MIC90, strain O; type: cell-based; details: Microsporum canis, PTCC5069, 48 h
C. albicans (ATCC 10231) = assay: Microdilution MIC90, strain A; type: cell-based; details: 24 h, strain A, yeast, 24 h at 37 °C, triplicate
[2] = system: T. mentagrophytes (PTCC 5054); assay: Microdilution MIC90, strain M; type: cell-based; details: Trichophyton mentagrophytes, PTCC5054, 48 h
Asp. niger (PTCC 5154) = assay: Microdilution MIC90, strain I; type: cell-based, Aspergillus niger; details: filamentous fungi, 48 h at 37 °C, triplicate
[3] = system: Asp. flavus (ATCC 204304); assay: Microdilution MIC90, strain G; type: cell-based, Aspergillus flavus; details: filamentous fungi, 48 h at 37 °C, triplicate
[4] = system: T. schoenleinii (PTCC 5221); assay: Microdilution MIC90, strain N; type: cell-based; details: Trichophyton schoenleinii, PTCC5221, 48 h
[5] = system: C. parapsilosis (ATCC 22019); assay: Microdilution MIC90, strain D; type: cell-based; details: 24 h
[6] = system: Asp. fumigatus (PTCC 5009); assay: Microdilution MIC90, strain H; type: cell-based; details: filamentous fungi, 48 h at 37 °C, triplicate
C. glabrata (ATCC 90030) = assay: Microdilution MIC90, strain C; type: cell-based; details: 24 h, yeast, 24 h at 37 °C, triplicate
[7] = system: C. tropicalis (PTCC 5028); assay: Microdilution MIC90, strain E; type: cell-based; details: 24 h
Asp. terreus (PTCC 5023) = assay: Microdilution MIC90, strain J; type: cell-based, Aspergillus terreus; details: Aspergillus terreus, PTCC5023, 48 h, filamentous fungi, 48 h at 37 °C, triplicate
T. rubrum (PTCC 5143) = assay: Microdilution MIC90, strain K; type: cell-based, Trichophyton rubrum; details: filamentous fungi, 48 h at 37 °C, triplicate
C. krusei (ATCC 6258) = assay: Microdilution MIC90, strain B; type: cell-based; details: yeast, 24 h at 37 °C, triplicate
[8] = system: Microsporum gypseum (PTCC 5070); assay: Microdilution MIC90, strain L; type: cell-based; details: filamentous fungi, 48 h at 37 °C, triplicate
[9] = Aspergillus nidulans, PTCC5014, 48 h
[10] = Aspergillus niger, PTCC5154, 48 h
[11] = Aspergillus flavus, ATCC204304, 48 h
[12] = Aspergillus fumigatus, PTCC5009, 48 h
[13] = Trichophyton rubrum, PTCC5143, 48 h

Row | SMILES | MIC90 [1, 9] | MIC90 [1] | MIC90 (M. canis (PTCC 5069)) | MIC90 (C. albicans (ATCC 10231)) | MIC90 [2] | MIC90 (Asp. niger (PTCC 5154); [10]) | MIC90 [3, 11] | MIC90 [4] | MIC90 [5] | MIC90 [6, 12] | MIC90 (C. glabrata (ATCC 90030)) | MIC90 [7] | MIC90 (Asp. terreus (PTCC 5023)) | MIC90 (T. rubrum (PTCC 5143); [13]) | MIC90 [3] | MIC90 (C. krusei (ATCC 6258); 24 h) | other results
1 | O=C(Nc1ccc(Br)cc1)Nc1nnc(SCC(O)(Cn2cncn2)c2ccc(F)cc2F)s1 (stereo not drawn) [Compound 8d, 1-(4-Bromophenyl)-3-(5-((2-(2,4-difluorophenyl)-2-hydroxy-3-(1H-1,2,4-triazol-1-yl)propyl)thio)-1,3,4-thiadiazol-2-yl)urea] | 2 to 4 mg/L (≈ 3.52 to 7.04 µM) | 4 μg·mL^–1 | 64 mg/L (≈ 113 µM) | 32 mg/L (≈ 56.3 µM) | 32 mg/L (≈ 56.3 µM) | 64 mg/L (≈ 113 µM) | 8 mg/L (≈ 14.1 µM) | 32 mg/L (≈ 56.3 µM) | 8 mg/L (≈ 14.1 µM) | 64 mg/L (≈ 113 µM) | 32 mg/L (≈ 56.3 µM) | 32 mg/L (≈ 56.3 µM) | 32 mg/L (≈ 56.3 µM) | 4 mg/L (≈ 7.04 µM) | – | – | –
2 | O=C(Nc1nnc(SCC(O)(Cn2cncn2)c2ccc(F)cc2F)s1)Nc1ccccc1Cl (stereo not drawn) [Compound 8l, 1-(2-Chlorophenyl)-3-(5-((2-(2,4-difluorophenyl)-2-hydroxy-3-(1H-1,2,4-triazol-1-yl)propyl)thio)-1,3,4-thiadiazol-2-yl)urea] | 8 mg/L (≈ 15.3 µM) | – | – | – | – | – | 2 to 4 mg/L (≈ 3.82 to 7.63 µM) | – | 8 mg/L (≈ 15.3 µM) | – | – | – | – | – | 4 μg·mL^–1 | – | –
3 | O=C(Nc1ccc(Cl)c(Cl)c1)Nc1nnc(SCC(O)(Cn2cncn2)c2ccc(F)cc2F)s1 (stereo not drawn) [Compound 8q, 1-(3,4-Dichlorophenyl)-3-(5-((2-(2,4-difluorophenyl)-2-hydroxy-3-(1H-1,2,4-triazol-1-yl)propyl)thio)-1,3,4-thiadiazol-2-yl)urea] | 8 mg/L (≈ 14.3 µM) | – | 16 mg/L (≈ 28.7 µM) | 32 mg/L (≈ 57.3 µM) | 16 mg/L (≈ 28.7 µM) | 32 mg/L (≈ 57.3 µM) | 8 mg/L (≈ 14.3 µM) | 16 mg/L (≈ 28.7 µM) | 4 mg/L (≈ 7.16 µM) | 32 mg/L (≈ 57.3 µM) | – | 16 mg/L (≈ 28.7 µM) | 8 mg/L (≈ 14.3 µM) | 2 to 4 mg/L (≈ 3.58 to 7.16 µM) | – | – | MIC90 (T. rubrum (PTCC 5143)): 4 μg·mL^–1
4 | O=C(Nc1cccc(C(F)(F)F)c1)Nc1nnc(SCC(O)(Cn2cncn2)c2ccc(F)cc2F)s1 (stereo not drawn) [Compound 8j, 1-(5-((2-(2,4-Difluorophenyl)-2-hydroxy-3-(1H-1,2,4-triazol-1-yl)propyl)thio)-1,3,4-thiadiazol-2-yl)-3-(3-(trifluoromethyl)phenyl)urea] | 16 mg/L (≈ 28.7 µM) | – | 16 mg/L (≈ 28.7 µM) | – | 16 mg/L (≈ 28.7 µM) | 32 mg/L (≈ 57.4 µM) | 16 mg/L (≈ 28.7 µM) | 16 mg/L (≈ 28.7 µM) | 8 mg/L (≈ 14.3 µM) | 16 mg/L (≈ 28.7 µM) | 32 mg/L (≈ 57.4 µM) | 16 mg/L (≈ 28.7 µM) | 32 mg/L (≈ 57.4 µM) | 8 mg/L (≈ 14.3 µM) | – | 32 mg/L (≈ 57.4 µM) | –
5 | O=C(Nc1nnc(SCC(O)(Cn2cncn2)c2ccc(F)cc2F)s1)Nc1ccccc1Br (stereo not drawn) [Compound 8m, 1-(2-Bromophenyl)-3-(5-((2-(2,4-difluorophenyl)-2-hydroxy-3-(1H-1,2,4-triazol-1-yl)propyl)thio)-1,3,4-thiadiazol-2-yl)urea] | 8 mg/L (≈ 14.1 µM) | – | 64 mg/L (≈ 113 µM) | 32 mg/L (≈ 56.3 µM) | 32 mg/L (≈ 56.3 µM) | 32 mg/L (≈ 56.3 µM) | 8 mg/L (≈ 14.1 µM) | 64 mg/L (≈ 113 µM) | 16 mg/L (≈ 28.1 µM) | 32 mg/L (≈ 56.3 µM) | 16 mg/L (≈ 28.1 µM) | 8 mg/L (≈ 14.1 µM) | 16 mg/L (≈ 28.1 µM) | 2 to 4 mg/L (≈ 3.52 to 7.04 µM) | – | – | MIC90 (T. rubrum (PTCC 5143)): 4 μg·mL^–1
6 | O=C(Nc1ccc(Cl)cc1)Nc1nnc(SCC(O)(Cn2cncn2)c2ccc(F)cc2F)s1 (stereo not drawn) [Compound 8a, 1-(4-Chlorophenyl)-3-(5-((2-(2,4-difluorophenyl)-2-hydroxy-3-(1H-1,2,4-triazol-1-yl)propyl)thio)-1,3,4-thiadiazol-2-yl)urea] | 16 mg/L (≈ 30.5 µM) | – | 2 mg/L (≈ 3.82 µM) | 32 mg/L (≈ 61.1 µM) | 16 mg/L (≈ 30.5 µM) | 2 to 4 mg/L (≈ 3.82 to 7.63 µM) | 8 mg/L (≈ 15.3 µM) | 8 mg/L (≈ 15.3 µM) | 8 mg/L (≈ 15.3 µM) | 2 to 4 mg/L (≈ 3.82 to 7.63 µM) | – | 32 mg/L (≈ 61.1 µM) | 8 mg/L (≈ 15.3 µM) | 2 mg/L (≈ 3.82 µM) | – | 1 to 16 mg/L (≈ 1.91 to 30.5 µM) | MIC90 (C. krusei (ATCC 6258)): 1 μg·mL^–1; MIC90 (Asp. niger (PTCC 5154)): 4 μg·mL^–1; MIC90 [6]: 1 μg·mL^–1
7 | O=C(Nc1nnc(SCC(O)(Cn2cncn2)c2ccc(F)cc2F)s1)Nc1ccccc1C(F)(F)F (stereo not drawn) [Compound 8k, 1-(5-((2-(2,4-Difluorophenyl)-2-hydroxy-3-(1H-1,2,4-triazol-1-yl)propyl)thio)-1,3,4-thiadiazol-2-yl)-3-(2-(trifluoromethyl)phenyl)urea] | 2 to 4 mg/L (≈ 3.59 to 7.17 µM) | 4 μg·mL^–1 | 16 mg/L (≈ 28.7 µM) | – | 32 mg/L (≈ 57.4 µM) | 16 mg/L (≈ 28.7 µM) | 2 to 4 mg/L (≈ 3.59 to 7.17 µM) | 16 mg/L (≈ 28.7 µM) | 4 mg/L (≈ 7.17 µM) | 16 mg/L (≈ 28.7 µM) | 16 mg/L (≈ 28.7 µM) | 16 mg/L (≈ 28.7 µM) | 16 mg/L (≈ 28.7 µM) | 8 mg/L (≈ 14.3 µM) | 2 μg·mL^–1 | – | –
8 | Cc1cccc(NC(=O)Nc2nnc(SCC(O)(Cn3cncn3)c3ccc(F)cc3F)s2)c1 (stereo not drawn) [Compound 8i, 1-(5-((2-(2,4-Difluorophenyl)-2-hydroxy-3-(1H-1,2,4-triazol-1-yl)propyl)thio)-1,3,4-thiadiazol-2-yl)-3-(m-tolyl)urea] | 2 to 4 mg/L (≈ 3.97 to 7.94 µM) | 2 μg·mL^–1 | 16 mg/L (≈ 31.8 µM) | 8 mg/L (≈ 15.9 µM) | 16 mg/L (≈ 31.8 µM) | 16 mg/L (≈ 31.8 µM) | 2 to 4 mg/L (≈ 3.97 to 7.94 µM) | 8 mg/L (≈ 15.9 µM) | 8 mg/L (≈ 15.9 µM) | 8 mg/L (≈ 15.9 µM) | 32 mg/L (≈ 63.5 µM) | 8 mg/L (≈ 15.9 µM) | 32 mg/L (≈ 63.5 µM) | 16 mg/L (≈ 31.8 µM) | 2 μg·mL^–1 | 16 mg/L (≈ 31.8 µM) | –
9 | Cc1ccccc1NC(=O)Nc1nnc(SCC(O)(Cn2cncn2)c2ccc(F)cc2F)s1 (stereo not drawn) [Compound 8n, 1-(5-((2-(2,4-Difluorophenyl)-2-hydroxy-3-(1H-1,2,4-triazol-1-yl)propyl)thio)-1,3,4-thiadiazol-2-yl)-3-(o-tolyl)urea] | 2 to 4 mg/L (≈ 3.97 to 7.94 µM) | 4 μg·mL^–1 | – | – | – | – | 8 mg/L (≈ 15.9 µM) | – | – | – | – | – | – | – | – | – | –
10 | COc1cccc(NC(=O)Nc2nnc(SCC(O)(Cn3cncn3)c3ccc(F)cc3F)s2)c1 (stereo not drawn) [Compound 8h, 1-(5-((2-(2,4-Difluorophenyl)-2-hydroxy-3-(1H-1,2,4-triazol-1-yl)propyl)thio)-1,3,4-thiadiazol-2-yl)-3-(3-methoxyphenyl)urea] | 2 to 4 mg/L (≈ 3.85 to 7.7 µM) | 4 μg·mL^–1 | 32 mg/L (≈ 61.6 µM) | 16 mg/L (≈ 30.8 µM) | 16 mg/L (≈ 30.8 µM) | 8 mg/L (≈ 15.4 µM) | 8 mg/L (≈ 15.4 µM) | 32 mg/L (≈ 61.6 µM) | 4 mg/L (≈ 7.7 µM) | 16 mg/L (≈ 30.8 µM) | – | 16 mg/L (≈ 30.8 µM) | 16 mg/L (≈ 30.8 µM) | 2 mg/L (≈ 3.85 µM) | – | 8 mg/L (≈ 15.4 µM) | –
11 | O=C(Nc1cccc(Cl)c1)Nc1nnc(SCC(O)(Cn2cncn2)c2ccc(F)cc2F)s1 (stereo not drawn) [Compound 8f, 1-(3-Chlorophenyl)-3-(5-((2-(2,4-difluorophenyl)-2-hydroxy-3-(1H-1,2,4-triazol-1-yl)propyl)thio)-1,3,4-thiadiazol-2-yl)urea] | 2 to 4 mg/L (≈ 3.82 to 7.63 µM) | 4 μg·mL^–1 | – | 4 mg/L (≈ 7.63 µM) | – | – | 2 to 4 mg/L (≈ 3.82 to 7.63 µM) | – | 8 mg/L (≈ 15.3 µM) | – | – | – | – | 2 mg/L (≈ 3.82 µM) | 4 μg·mL^–1 | – | MIC90 [8]: 4 μg·mL^–1
